Assay results from ChEMBL document CHEMBL4680133, “Novel nitroimidazole derivatives evaluated for their trypanocidal, cytotoxic, and genotoxic activities” (Eur J Med Chem, 2020).

Assays:
[1] = Mutagenicity in Salmonella typhimurium YG1024 at 5 to 100 ug/plate after 20 mins by microsome assay; assay type: toxicity; settings: salmonella enterica subsp. enterica serovar typhimurium, microsomes, dose 5-100 µg
[2] = Mutagenicity in Salmonella typhimurium TA97 measured after 20 mins in presence of S9 fraction by microsome assay; assay type: toxicity, subcellular; settings: salmonella enterica subsp. enterica serovar typhimurium, s9, 20 min, dose 5-100 µg
[3] = Toxicity in Salmonella typhimurium YG1021 at 5 to 100 ug/plate after 20 mins by colony counting method; settings: salmonella enterica subsp. enterica serovar typhimurium, dose 5-100 µg
[4] = test system: RAW264.7; assay: Genotoxicity in mouse RAW264.7 cells assessed as number of micronucleated cells at 2135 uM measured after 24 hrs by micronucleus test (reference value: 12 to 15); assay type: toxicity, cell-based; settings: raw264.7, 24 h
[5] = test system: Trypanosoma cruzi; assay: Antitrypanosomal activity against Trypanosoma cruzi Y axenic amastigotes infected in African green monkey Vero cells after 24 hrs by MTT assay; assay type: functional, organism-based
[6] = test system: RAW264.7; assay: Genotoxicity in mouse RAW264.7 cells assessed as number of micronucleated cells at 427 uM measured after 24 hrs by micronucleus test (reference value: 12 to 15); assay type: toxicity, cell-based; settings: raw264.7, 24 h
[7] = Mutagenicity in Salmonella typhimurium TA98 measured after 20 mins in absence of S9 fraction by microsome assay; assay type: toxicity; settings: salmonella enterica subsp. enterica serovar typhimurium, microsomes, dose 5-100 µg
[8] = Cytotoxicity against human HepG2 cells assessed as reduction in cell viability measured after 24 hrs by WST1 assay; assay type: cell-based
[9] = Mutagenicity in Salmonella typhimurium TA97 assessed as revertant/ug measured after 20 mins in absence of S9 fraction by microsome assay; assay type: toxicity; settings: salmonella enterica subsp. enterica serovar typhimurium, microsomes
[10] = test system: Trypanosoma cruzi; assay: Antitrypanosomal activity against bloodstream form of Trypanosoma cruzi Y trypomastigotes infected in African green monkey Vero cells assessed as increase in parasite lysis measured after 24 hrs by Neubauer chamber method; assay type: functional, organism-based
[11] = Mutagenicity in Salmonella typhimurium YG1021 at 5 to 100 ug/plate after 20 mins by microsome assay; assay type: toxicity; settings: salmonella enterica subsp. enterica serovar typhimurium, microsomes
[12] = Mutagenicity in Salmonella typhimurium TA97 measured after 20 mins in absence of S9 fraction by microsome assay; assay type: toxicity; settings: salmonella enterica subsp. enterica serovar typhimurium, microsomes, dose 5-100 µg
[13] = Selectivity index, ratio of GI50 for mouse RAW264.7 cells assessed as reduction in cell viability measured after 24 hrs by WST1 assay to IC50 for antitrypanosomal activity against Trypanosoma cruzi Y axenic amastigotes infected in African green monkey Vero cells; assay type: toxicity; settings: read-out: Selectivity Index
[14] = Mutagenicity in Salmonella typhimurium TA100 assessed as revertant/ug measured after 20 mins in absence of S9 fraction by microsome assay; assay type: toxicity; settings: salmonella enterica subsp. enterica serovar typhimurium, microsomes
[15] = Selectivity index, ratio of GI50 for human HepG2 cells assessed as reduction in cell viability measured after 24 hrs by WST1 assay to IC50 for antitrypanosomal activity against Trypanosoma cruzi Y axenic amastigotes infected in African green monkey Vero cells; assay type: toxicity; settings: read-out: Selectivity Index
[16] = Mutagenicity in Salmonella typhimurium TA102 measured after 20 mins in absence of S9 fraction by microsome assay; assay type: toxicity; settings: salmonella enterica subsp. enterica serovar typhimurium, microsomes, dose 5-100 µg
[17] = Genotoxicity in mouse RAW264.7 cells assessed as survival at 2135 uM measured after 24 hrs by micronucleus test (reference value: 100%); assay type: toxicity, cell-based; settings: read-out: Survival
[18] = Selectivity index, ratio of GI50 for mouse RAW264.7 cells assessed as reduction in cell viability measured after 24 hrs by WST1 assay to IC50 for antitrypanosomal activity against bloodstream form of Trypanosoma cruzi Y trypomastigotes infected in African green monkey Vero cells; assay type: toxicity; settings: read-out: Selectivity Index
[19] = test system: HepG2; assay: Cytotoxicity against human HepG2 cells at 21.3 to 427 uM measured after 24 hrs by LDH assay; assay type: cell-based; settings: hepg2, 24 h, dose 21.3-427 µM
[20] = test system: RAW264.7; assay: Genotoxicity in mouse RAW264.7 cells assessed as number of micronucleated cells at 213 uM measured after 24 hrs by micronucleus test (reference value: 12 to 15); assay type: toxicity, cell-based; settings: raw264.7, 24 h
[21] = Mutagenicity in Salmonella typhimurium TA102 measured after 20 mins in presence of S9 fraction by microsome assay; assay type: toxicity, subcellular; settings: salmonella enterica subsp. enterica serovar typhimurium, s9, 20 min, dose 5-100 µg
[22] = Selectivity index, ratio of GI50 for human HepG2 cells assessed as reduction in cell viability measured after 24 hrs by WST1 assay to IC50 for antitrypanosomal activity against bloodstream form of Trypanosoma cruzi Y trypomastigotes infected in African green monkey Vero cells; assay type: toxicity; settings: read-out: Selectivity Index
[23] = Mutagenicity in Salmonella typhimurium TA98 measured after 20 mins in presence of S9 fraction by microsome assay; assay type: toxicity, subcellular; settings: salmonella enterica subsp. enterica serovar typhimurium, s9, 20 min, dose 5-100 µg
[24] = Genotoxicity in human HepG2 assessed as survival at 213 uM measured after 24 hrs by micronucleus test (reference value: 100%); assay type: toxicity, cell-based; settings: HepG2 cells, read-out: Survival
[25] = Mutagenicity in Salmonella typhimurium TA100 measured after 20 mins in presence of S9 fraction by microsome assay; assay type: toxicity, subcellular; settings: salmonella enterica subsp. enterica serovar typhimurium, s9, 20 min, dose 5-100 µg
[26] = test system: HepG2; assay: Genotoxicity in human HepG2 assessed as number of micronucleated cells at 4270 uM measured after 24 hrs by micronucleus test (reference value: 14 to 18); assay type: toxicity, cell-based; settings: hepg2, 24 h
[27] = Mutagenicity in Salmonella typhimurium TA97 assessed as revertant/ug measured after 20 mins in presence of S9 fraction by microsome assay; assay type: toxicity, subcellular; settings: salmonella enterica subsp. enterica serovar typhimurium, s9, 20 min
[28] = test system: RAW264.7; assay: Cytotoxicity against mouse RAW264.7 cells at 21.3 to 427 uM measured after 24 hrs by LDH assay; assay type: cell-based; settings: raw264.7, 24 h, dose 21.3-427 µM
[29] = Mutagenicity in Salmonella typhimurium TA100 measured after 20 mins in absence of S9 fraction by microsome assay; assay type: toxicity; settings: salmonella enterica subsp. enterica serovar typhimurium, microsomes, dose 5-100 µg
[30] = test system: HepG2; assay: Genotoxicity in human HepG2 assessed as mitotic index at 2135 uM measured after 24 hrs by micronucleus test (reference value: 61 to 108); assay type: toxicity, cell-based; settings: hepg2, 24 h
[31] = Cytotoxicity against mouse RAW264.7 cells assessed as reduction in cell viability measured after 24 hrs by WST1 assay; assay type: cell-based
[32] = Toxicity in Salmonella typhimurium TA97 at 100 ug/plate measured after 20 mins in absence of S9 fraction by colony counting method; settings: salmonella enterica subsp. enterica serovar typhimurium, dose 100 µg
[33] = Mutagenicity in Salmonella typhimurium TA100 assessed as revertant/ug measured after 20 mins in presence of S9 fraction by microsome assay; assay type: toxicity, subcellular; settings: salmonella enterica subsp. enterica serovar typhimurium, s9, 20 min
[34] = test system: RAW264.7; assay: Genotoxicity in mouse RAW264.7 cells assessed as number of micronucleated cells at 175 uM measured after 24 hrs by micronucleus test (reference value: 12 to 15); assay type: toxicity, cell-based; settings: raw264.7, 24 h
[35] = test system: HepG2; assay: Genotoxicity in human HepG2 assessed as number of micronucleated cells at 3500 uM measured after 24 hrs by micronucleus test (reference value: 14 to 18); assay type: toxicity, cell-based; settings: hepg2, 24 h
[36] = Genotoxicity in mouse RAW264.7 cells assessed as survival at 350 uM measured after 24 hrs by micronucleus test (reference value: 100%); assay type: toxicity, cell-based; settings: read-out: Survival
[37] = Genotoxicity in human HepG2 assessed as survival at 350 uM measured after 24 hrs by micronucleus test (reference value: 100%); assay type: toxicity, cell-based; settings: HepG2 cells, read-out: Survival
[38] = test system: RAW264.7; assay: Cytotoxicity against mouse RAW264.7 cells assessed as induction of membrane damage at 17.5 to 350 uM measured after 24 hrs by LDH assay; assay type: cell-based; settings: raw264.7, 24 h, dose 17.5-350 µM

Row | SMILES | Activity [1] | Activity [2] | Activity [3] | IC50 [5] [µM] | Activity [7] | GI50 at 24 h [8] [µM] | Activity [9] [revertants/µg] | IC50 [10] [µM] | Activity [11] | Activity [12] | selectivity ratio at 24 h [13] | Activity [14] [revertants/µg] | selectivity ratio at 24 h [15] | Activity [16] | selectivity ratio at 24 h [18] | Activity [21] | selectivity ratio at 24 h [22] | Activity [23] | Activity [25] | Activity [27] [µg] | also measured
1 | Cn1cnc([N+](=O)[O-])c1-n1cc(C2CC2)nn1 | Non-Toxic | Toxic | Non-Toxic | 12 | Non-Toxic | > 427 | 6.31 | 5.4 | Non-Toxic | Toxic | > 35.5 | 2.42 | > 35.5 | Toxic | > 79 | Toxic | > 79 | Non-Toxic | Toxic | 3.833 | Activity [4]: 19; Activity [6]: 11; viability at 24 h, 2135 µM [17]: 96%; Activity [19]: Non-Toxic; Activity [20]: 12; viability at 24 h, 213 µM [24]: 99%; Activity [26]: 27; Activity [28]: Non-Toxic; Activity [29]: Toxic; Activity_index [30]: 101; GI50 at 24 h [31]: > 427 µM; Activity [32]: Toxic; Activity [33]: 0.278 revertants/µg
2 | CCCCCc1ccc(-c2cn(-c3c([N+](=O)[O-])ncn3C)nn2)cc1 | Toxic | Toxic | Toxic | 142 | Non-Toxic | > 350 | 1.34 | 12.9 | Toxic | Toxic | > 0.25 | 2.96 | > 2.46 | Toxic | 2.77 | Toxic | 27 | Non-Toxic | Toxic | 8.494 | Activity [34]: 11; Activity [35]: 42; Activity [29]: Toxic; viability at 24 h, 350 µM [36]: 99%; GI50 at 24 h [31]: 35.8 µM; viability at 24 h, 350 µM [37]: 95%; Activity [33]: 2.46 revertants/µg; Activity [38]: Toxic
